# In ChEMBL document CHEMBL5247581, “Design, synthesis and biological evaluation of new quinazolinone-benzopyran-indole hybrid compounds promoting osteogenesis through BMP2 upregulation” (Eur J Med Chem, 2022):
# Active and inactive are the calls of the source. The rule behind the calls is not given here.
# What was measured:
# Calvarial osteoblast [1] = assay: Induction of osteogenesis in mouse Osteoblast cells assessed as fold increase in RUNX2 gene expression at 1 pM by qRT-PCR analysis; type: functional
# Mus musculus [2] = assay: Induction of osteogenesis in BALB/c mouse assessed as increase in Col1a1 gene expression at 5 mg/kg, ip by qRT-PCR analysis; type: functional, organism-based
# Calvarial osteoblast [3] = assay: Cytotoxicity against mouse Osteoblast cells assessed as reduction in cell viability at 0.000001 to 1 uM measured for 24 to 48 hrs by MTT assay; type: toxicity, cell-based; conditions: dose lower 1e-06 µM, time lower 24 hrs, dose upper 1 µM, time upper 48 hrs
# Mus musculus [4] = assay: Induction of bone formation in BALB/c mouse model assessed as bone formation rate/bone surface at 1 to 5 mg/kg by double labelling based analysis; type: functional, organism-based; conditions: dose 1-5 mg/kg
# Mus musculus [5] = assay: Induction of bone formation in BALB/c mouse model assessed as increase in intercortical distance at 1 mg/kg by histopathological analysis; type: functional, organism-based
# Mus musculus [6] = assay: Induction of bone formation in BALB/c mouse model assessed as morphological architecture at 1 mg/kg by histopathological analysis; type: functional, organism-based
# Mus musculus [7] = assay: Induction of osteogenesis in BALB/c mouse assessed as increase in BGLAP gene expression at 5 mg/kg, ip by qRT-PCR analysis; type: functional, organism-based
# Mus musculus [8] = assay: Induction of bone formation in BALB/c mouse model assessed as calvarial bone formation at 1 to 5 mg/kg by double labelling based analysis; type: functional, organism-based; conditions: dose 1-5 mg/kg
# Mus musculus [9] = assay: Induction of osteogenesis in BALB/c mouse assessed as fold increase in BGLAP gene expression at 5 mg/kg, ip by qRT-PCR analysis; type: functional
# Calvarial osteoblast [10] = assay: Induction of osteogenesis in mouse Osteoblast cells assessed as fold increase in BGLAP expression at 1 to 100 pM by qRT-PCR analysis; type: functional; conditions: dose 1-100 pM
# [11] = Induction of osteoblast mineralization in mouse Bone marrow cells assessed as increase in mineralized nodule formation at 10 nM replaced with media every 48 hrs for 21 days by Alizarin Red staining-based microscopic analysis; type: functional, Bone marrow cell; conditions: time 21 day
# Calvarial osteoblast [12] = assay: Induction of osteogenesis in mouse Osteoblast cells assessed as ALP activity at 0.001 to 1 uM measured for 48 hrs; type: functional, cell-based; conditions: dose 0.001-1 µM
# Calvarial osteoblast [13] = assay: Induction of osteogenesis in mouse Osteoblast cells assessed as fold increase in BMP2 gene expression at 100 pM by qRT-PCR analysis; type: functional
# Calvarial osteoblast [14] = assay: Induction of osteogenesis in mouse Osteoblast cells assessed as fold increase in BGLAP expression at 10 nM by qRT-PCR analysis; type: functional
# [15] = Induction of osteoblast mineralization in mouse Bone marrow cells assessed as increase in mineralized nodule formation at 100 pM replaced with media every 48 hrs for 21 days by Alizarin Red staining-based microscopic analysis; type: functional, Bone marrow cell; conditions: time 21 day
# Mus musculus [16] = assay: Induction of bone formation in BALB/c mouse model assessed as mineral apposition rate at 1 to 5 mg/kg by double labelling based analysis; type: functional, organism-based; conditions: dose 1-5 mg/kg
# Calvarial osteoblast [17] = assay: Induction of osteogenesis in mouse Osteoblast cells assessed as ALP activity at 0.001 to 100 uM measured for 24 hrs; type: functional, cell-based; conditions: dose 0.001-100 µM
# Calvarial osteoblast [18] = assay: Cytotoxicity against mouse Osteoblast cells assessed as reduction in cell viability at 100 uM measured for 24 to 48 hrs by MTT assay; type: toxicity, cell-based; conditions: time 24-48 hrs
# Calvarial osteoblast [19] = assay: Induction of osteogenesis in mouse Osteoblast cells assessed as ALP activity at 100 pM measured for 24 to 48 hrs; type: functional, cell-based; conditions: time 24-48 hrs
# Mus musculus [20] = assay: Induction of osteogenesis in BALB/c mouse assessed as fold increase in RUNX2 gene expression at 5 mg/kg, ip by qRT-PCR analysis; type: functional
# Calvarial osteoblast [21] = assay: Induction of osteoblast differentiation in mouse Osteoblast cells assessed as fold increase in BMP2 expression at 100 pM by qRT-PCR analysis; type: functional
# Calvarial osteoblast [22] = assay: Induction of osteogenesis in mouse Osteoblast cells assessed as fold increase in ALP expression at 100 pM by qRT-PCR analysis; type: functional
# Calvarial osteoblast [23] = assay: Induction of osteogenesis in mouse Osteoblast cells assessed as ALP activity at 0.001 to 100 uM measured for 24 to 48 hrs; type: functional; conditions: dose 0.001-100 µM, time 24-48 hrs
# Mus musculus [24] = assay: Induction of osteogenesis in BALB/c mouse assessed as fold increase in Col1a1 gene expression at 5 mg/kg, ip by qRT-PCR analysis; type: functional
# [25] = Upregulation of BMP2 expression in mouse Osteoblast cells assessed as fold increase in phosphorylated p38 level measured at 24 hrs by ELISA analysis; type: functional, Calvarial osteoblast
# Calvarial osteoblast [26] = assay: Induction of osteogenesis in mouse Osteoblast cells assessed as ALP activity at 0.001 to 100 uM measured for 48 hrs; type: functional, cell-based; conditions: dose 0.001-100 µM
# Calvarial osteoblast [27] = assay: Induction of osteogenesis in mouse Osteoblast cells assessed as fold increase in mRNA expression at 1 to 10000 pM by qRT-PCR analysis; type: functional; conditions: dose 1-10000 pM
# Mus musculus [28] = assay: Induction of osteogenesis in BALB/c mouse assessed as increase in RUNX2 gene expression at 5 mg/kg, ip by qRT-PCR analysis; type: functional, organism-based
# Calvarial osteoblast [29] = assay: Induction of osteoblast differentiation in mouse Osteoblast cells assessed as fold increase in RUNX2 expression at 100 pM by qRT-PCR analysis; type: functional
# Calvarial osteoblast [30] = assay: Induction of osteoblast differentiation in mouse calvarial osteoblasts cells assessed as ALP activity at 1 to 10000 pM measured for 7 days; type: functional, cell-based; conditions: dose 1-10000 pM, time 7.0 day
# Mus musculus [31] = assay: Induction of bone formation in BALB/c mouse model assessed as mineralizing surface per bone surface at 1 to 5 mg/kg by double labelling based analysis; type: functional, organism-based; conditions: dose 1-5 mg/kg
# Mus musculus [32] = assay: Induction of osteogenesis in BALB/c mouse assessed as fold increase in BMP2 gene expression at 5 mg/kg, ip by qRT-PCR analysis; type: functional
# Mus musculus [33] = assay: Induction of osteogenesis in BALB/c mouse assessed as increase in BMP2 gene expression at 5 mg/kg, ip by qRT-PCR analysis; type: functional, organism-based
compound,measurement,setting,value
CCn1c(-c2cc(C)c3c(c2)C(c2c(C)[nH]c4ccccc24)C(C#N)=C(N)O3)nc2ccccc2c1=O (stereo not drawn),fold change (FC),Calvarial osteoblast [1],2
same,Activity,Mus musculus [2],Active
same,Activity,Calvarial osteoblast [3],Non-Toxic
same,Activity,Mus musculus [4],Active
same,Activity,Mus musculus [5],Active
same,Activity,Mus musculus [6],Active
same,Activity,Mus musculus [7],Active
same,Activity,Mus musculus [8],Active
same,fold change (FC),Mus musculus [9],7
same,fold change (FC),Calvarial osteoblast [10],2
same,Activity,[11],50%
same,Activity,Calvarial osteoblast [12],Active
same,fold change (FC),Calvarial osteoblast [13],3
same,fold change (FC),Calvarial osteoblast [14],4
same,Activity,[15],30%
same,Activity,Mus musculus [16],Active
same,Activity,Calvarial osteoblast [17],inactive
same,Activity,Calvarial osteoblast [18],Toxic
same,Activity,Calvarial osteoblast [19],Active
same,fold change (FC),Mus musculus [20],11
same,fold change (FC),Calvarial osteoblast [21],2.3
same,fold change (FC),Calvarial osteoblast [22],3
same,Activity,Calvarial osteoblast [23],50%
same,fold change (FC),Mus musculus [24],10
same,fold change (FC),[25],1.5
same,Activity,Calvarial osteoblast [26],Active
same,fold change (FC),Calvarial osteoblast [27],2
same,Activity,Mus musculus [28],Active
same,fold change (FC),Calvarial osteoblast [29],2.7
same,Activity,Calvarial osteoblast [30],Active
same,Activity,Mus musculus [31],Active
same,fold change (FC),Mus musculus [32],6
same,Activity,Mus musculus [33],Active
